The source of these data is US20050261292A1, “Pharmaceutical composition containing N-sulfamoyl-N'-arylpiperazines for the treatment or inhibition of obesity and related conditions” (Solvay Pharmaceuticals GmbH, priority 2004, published 2005).

A word on the melting point: it is the temperature of the solid-liquid transition. For orientation: IC50 means the point on the concentration scale where inhibition reaches its midpoint.

Structures are written as SMILES. Counter-ions that a name gives are not always drawn.

Tested on in the first data set: not given
Assay: not given
Details: not given
The compound `NS(=O)(=O)N1CCN(c2cc(C(F)(F)F)nc3ccccc23)CC1` (as salt: HCl) [Example 17] displayed a melting point of 191 °C. Consider `NS(=O)(=O)N1CCN(c2ccc(C(F)(F)F)cc2[N+](=O)[O-])CC1` (as salt: HCl) [Example 20], for which the melting point was 134 °C.

Compound `NS(=O)(=O)N1CCN(c2ccc(Cl)c(C(F)(F)F)c2)CC1` (as salt: HCl) [Example 12, 4-(4-chloro-3-trifluoromethyl-phenyl)-piperazine-1-sulfonic acid amide] yielded a melting point of 180 °C. Same read-out and setting: the same measure for `CC(=O)c1ccc(N2CCN(S(N)(=O)=O)CC2)cc1` (as salt: HCl) [Example 15]: 156 °C; for `N#Cc1cccnc1N1CCN(S(N)(=O)=O)CC1` (as salt: HCl) [Example 13]: 190 °C. Still for that read-out and setting: the same measure for `NS(=O)(=O)N1CCN(c2ncc(C(F)(F)F)cc2Cl)CC1` (as salt: HCl) [Example 14, 4-(3-chloro-5-trifluoromethyl-pyridin-2-yl)-piperazine-1-sulfonic acid amide]: 159 °C; for `Cc1cccc(N2CCN(S(N)(=O)=O)CC2)c1C` (as salt: HCl) [Example 8]: 202 °C. Compound `NS(=O)(=O)N1CCN(c2c(Cl)cncc2Cl)CC1` (as salt: HCl) [Example 16] gave a melting point of 206 °C.

Compound `NS(=O)(=O)N1CCN(c2ccncc2)CC1` (as salt: HCl) [Example 6, 4-pyridin-4-yl-piperazine-1-sulfonic acid amide] showed a melting point of 243 °C. Same read-out and setting: in the case of `NS(=O)(=O)N1CCN(c2nccc(C(F)(F)F)n2)CC1` (as salt: HCl) [Example 18] it was 156 °C; in that of `NS(=O)(=O)N1CCN(c2ccc(C(F)(F)F)cn2)CC1` (as salt: HCl) [Example 19], 169 °C. Take `Cc1ccc(Cl)cc1N1CCN(S(N)(=O)=O)CC1` (as salt: HCl) [Example 11]: the melting point is 190 °C. Still for that read-out and setting: the same measure for `CS(=O)(=O)c1ccc(N2CCN(S(N)(=O)=O)CC2)c(F)c1` (as salt: HCl) [Example 21]: 184 °C; for `NS(=O)(=O)N1CCN(c2ccc(F)cc2)CC1` (as salt: HCl) [Example 9, 4-(4-fluoro-phenyl)-piperazine-1-sulfonic acid amide]: 125 °C.

In the next data set the test system is male fatty Zucker rats. The experiment in a line: In vivo oral glucose tolerance test in the rat. The conditions noted are these: 100 mg/kg/day oral gavage, 0 min sample before glucose challenge. Here is the method:
2. In vivo Oral Glucose Tolerance Test in the Rat
The studies were carried out in individually housed male fatty Zucker rats (n=10 per group) weighing ca. 250-500 g. The rats were kept on a normal 12/12 h light/dark cycle (lights on 07.00) and they were allowed food (lab chow) and water ad libitum except for during experiments, when they were fasted overnight before the glucose challenge.
The test substances of Formula I were suspended in 2% polyethylenglycol (=PEG) 1% carboxymethylcellulose and administered by oral gavage at a dose of 100 mg/kg/day; ⅓ of the dose (1 ml/kg, 33 mg/ml) was administered at 08.30-09.30 h; the remaining […] (2 ml/kg; 33 mg/ml) was administered between 16.00-17.00 h and the last ⅓ dose was given the following morning. Control animals received only the vehicle. On the day of the test, 45 min after the final dose of test substance/vehicle a blood sample (0 min) was taken (tail vein) immediately after which the rats received an oral glucose challenge (1.25 g/kg; 118 mg/ml). Further blood samples were taken at 30, 60, 90, 120 min after the glucose challenge. The second drop of blood of each sample was placed on a glucose test strip before this was placed in the glucose meter for determination of blood glucose level (Life Scan One Touch Ultra Blood® Glucose Meter and Life Scan One Touch Ultra® Test Strips; Life Scan Inc.; Milpitas, Calif. 95035). The remaining blood of each sample was spun and the plasma was frozen at −80° C. before analysis for insulin (1-2-3 Rat Insulin ELISA kit, Alpco Diagnostics).
The values obtained were plotted and the AUC for test compounds and vehicle (for glucose and insulin) were determined after which the percent control AUC, percent control maximum value and % control baseline were estimated, to determine the influence of the test compound on the glucose tolerance.
As to `NS(=O)(=O)N1CCN(c2ncc(C(F)(F)F)cc2Cl)CC1` [Example 14, 4-(3-chloro-5-trifluoromethyl-pyridin-2-yl)-piperazine-1-sulfonic acid amide], the “Glucose Baseline” value is 88 % of control.

As to `NS(=O)(=O)N1CCN(c2ccncc2)CC1` [Example 6, 4-pyridin-4-yl-piperazine-1-sulfonic acid amide], the “Glucose Baseline” value was 91 % of control.

The same data set, now with this note: 100 mg/kg/day oral gavage, 0 min sample before glucose challenge, plasma.
In the case of `NS(=O)(=O)N1CCN(c2ncc(C(F)(F)F)cc2Cl)CC1` [Example 14, 4-(3-chloro-5-trifluoromethyl-pyridin-2-yl)-piperazine-1-sulfonic acid amide], the “Insulin Baseline” value was 97 % of control. On the same count and under the same terms, in the case of `NS(=O)(=O)N1CCN(c2ccncc2)CC1` [Example 6, 4-pyridin-4-yl-piperazine-1-sulfonic acid amide] it was 109 % of control.

Still in this data set, the particulars now being: 100 mg/kg/day oral gavage, oral glucose challenge 1.25 g/kg.
For the compound `NS(=O)(=O)N1CCN(c2ncc(C(F)(F)F)cc2Cl)CC1` [Example 14, 4-(3-chloro-5-trifluoromethyl-pyridin-2-yl)-piperazine-1-sulfonic acid amide], the “Glucose Maximal effect” value is recorded as 94 % of control. Same read-out and setting: in the case of `NS(=O)(=O)N1CCN(c2ccncc2)CC1` [Example 6, 4-pyridin-4-yl-piperazine-1-sulfonic acid amide] it was 84 % of control.

The data set is the same for the next values; noted with them: 100 mg/kg/day oral gavage, oral glucose challenge 1.25 g/kg, 0-120 min.
`NS(=O)(=O)N1CCN(c2ncc(C(F)(F)F)cc2Cl)CC1` [Example 14, 4-(3-chloro-5-trifluoromethyl-pyridin-2-yl)-piperazine-1-sulfonic acid amide]: the “Glucose AUC” value is 102 % of control. As to `NS(=O)(=O)N1CCN(c2ccncc2)CC1` [Example 6, 4-pyridin-4-yl-piperazine-1-sulfonic acid amide], the “Glucose AUC” value is 89 % of control.

The same data set, now with this note: 100 mg/kg/day oral gavage, oral glucose challenge 1.25 g/kg, 0-120 min, plasma.
For the compound `NS(=O)(=O)N1CCN(c2ncc(C(F)(F)F)cc2Cl)CC1` [Example 14, 4-(3-chloro-5-trifluoromethyl-pyridin-2-yl)-piperazine-1-sulfonic acid amide], the “Insulin AUC” value is 107 % of control. Regarding `NS(=O)(=O)N1CCN(c2ccncc2)CC1` [Example 6, 4-pyridin-4-yl-piperazine-1-sulfonic acid amide], the “Insulin AUC” value is recorded as 104 % of control.

Staying with this data set, now noted: 100 mg/kg/day oral gavage, oral glucose challenge 1.25 g/kg, plasma.
As to `NS(=O)(=O)N1CCN(c2ncc(C(F)(F)F)cc2Cl)CC1` [Example 14, 4-(3-chloro-5-trifluoromethyl-pyridin-2-yl)-piperazine-1-sulfonic acid amide], the “Insulin Maximal effect” value was 92 % of control.

As for `NS(=O)(=O)N1CCN(c2ccncc2)CC1` [Example 6, 4-pyridin-4-yl-piperazine-1-sulfonic acid amide], the “Insulin Maximal effect” value is reported as 123 % of control.

Another data set has as its system male C57Bl/6 mice. Nature of the data set: Acute in vivo food intake test in mice. The settings on record: high caloric diet, 100 mg/kg/day oral gavage in two halves. Here is the method:
3. Acute in vivo Food Intake Test in Mice
The studies were carried out in individually housed male C57Bl/6 mice (n=8 per group). The mice were kept on an inverted 12/12 h light/dark cycle (lights on 22:00). They were allowed food (high caloric diet) and water ad libitum. Food intake and water consumption was measured daily. The test compound of Formula I was suspended in 1% methylcellulose in water and 2% (v/v) of Poloxamer 188 (Lutrol F68®) and administered by oral gavage at a dose of 100 mg/kg/day.
In the test model described above, the test substances caused a decrease of the animals' 24 h food intake to the percentages of food intake when compared to control as given in table 3 below.
As to `NS(=O)(=O)N1CCN(c2ccc(Cl)c(C(F)(F)F)c2)CC1` [Example 12, 4-(4-chloro-3-trifluoromethyl-phenyl)-piperazine-1-sulfonic acid amide], the “24 h food intake” value was 53 % of control. For the compound `CC(=O)c1ccc(N2CCN(S(N)(=O)=O)CC2)cc1` [Example 15], the “24 h food intake” value was 79 % of control. Still for that read-out and setting: the same measure for `CS(=O)(=O)c1ccc(N2CCN(S(N)(=O)=O)CC2)c(F)c1` [Example 21]: 76 % of control; for `NS(=O)(=O)N1CCN(c2ncccn2)CC1` [Example 7, 4-pyrimidin-2-yl-piperazine-1-sulfonic acid amide]: 78 % of control.

The target in another data set is T1, human carbonic anhydrase isoenzyme II (hCA II) (Homo sapiens, UniProt P00918).
T1 construct: human carbonic anhydrase isoenzyme II from erythrocytes (Sigma-Aldrich); purchased Sigma-Aldrich; host or cells: human erythrocytes (natural source)
Nature of the data set: In vitro inhibition of human carbonic anhydrase isoenzyme II (hCA II), dansylamide fluorescence. The conditions noted are these: hCA II from erythrocytes 10^-7 M, 60 min, single measurements, read-out: hCA II inhibiting effect in vitro, IC50. Type of data set: biochemical. As to the method: 1. In vitro Inhibition of Human Carbonic Anhydrase Isoenzyme II (hCA II)
The test compounds of Formula I in 96 well microplates were diluted with aqua bidest by using an automatic pipettor (CyBiWell®). From the different dilution plates, aliquots of 20 μl were transferred to the 96 well black assay plates with a pipetting station (Tecan Genesis®). In a second step, 148 μl of potassium phosphate buffer (20 mM, pH 7.4) was added, and as a third step, 20 μl of enzyme solution (1 μM human carbonic anhydrase isoenzyme II from erythrocytes (Sigma-Aldrich), dissolved in potassium phosphate buffer) incubated for 60 min at room temperature and the fluorescence signal (Tecan Ultra® fluorescence reader; excitation wavelength: 280 nm; emission wavelength: 465 nm) read at the end of the preincubation period (FLU-1). After the preincubation time, 20 μl of aqueous dansylamide solution (1 mM dansylamide (Sigma-Aldrich), dissolved in hydrochloric acid) were added and the fluorescence signal read every 10 min for a period of 60 min at 37° C. For calculation, the fluorescence data of the time point 60 min (FLU-2) were used. The total volume of assay mixture amounted to 208 μl. The final concentration of carbonic anhydrase II was 10^−7 M/L, of dansylamide 2.25×10^−6 and of compounds from 10^−8 M/L up to 10^−5 M/L. Final concentration of DMSO as compound solvent was […]. Each microplate also contained blanks without compound and enzyme, controls without compound and ethoxzolamide (final concentration 5×10^−8 M/L). All data reflect single measurements. Data were expressed as % inhibition after calculation by the formula: % inhibition=100((1−(FLU−2cpd−FLU−2blank−FLU−1cpd+FLU−1blank)/(FLU−2control−FLU−2blank−FLU−1control−FLU−1blank))
The % inhibition data for each compound and the respective final concentrations were used for IC50 calculations by using the Prism 4 software. Concentration action figures were calculated by applying the Prism algorithm for nonlinear regression (curve-fit): sigmoidal dose response with variable slope and the constraints: top: 100 and bottom 0.
Consider `NS(=O)(=O)N1CCN(c2ccccn2)CC1` [Example 4, 4-Pyridin-2-yl-piperazine-1-sulfonic acid amide], for which the IC50 is 3.7 µM. For the compound `NS(=O)(=O)N1CCN(c2ccc(Cl)c(C(F)(F)F)c2)CC1` [Example 12, 4-(4-chloro-3-trifluoromethyl-phenyl)-piperazine-1-sulfonic acid amide], the IC50 came out at 1.2 µM.

Regarding `Cc1ccc(Cl)cc1N1CCN(S(N)(=O)=O)CC1` [Example 11], the IC50 worked out at 0.5 µM. Same read-out and setting: the same measure for `NS(=O)(=O)N1CCN(c2c(Cl)cncc2Cl)CC1` [Example 16]: 0.3 µM. As for `NS(=O)(=O)N1CCN(c2ccc(C(F)(F)F)cc2[N+](=O)[O-])CC1` [Example 20], the IC50 was 0.3 µM. On the same count and under the same terms, the same measure for `NS(=O)(=O)N1CCN(c2ccc(C(F)(F)F)cn2)CC1` [Example 19]: 0.08 µM. Consider `N#Cc1cccnc1N1CCN(S(N)(=O)=O)CC1` [Example 13], for which the IC50 came to 0.9 µM. Still for that read-out and setting: the same measure for `NS(=O)(=O)N1CCN(c2ccc(F)cc2)CC1` [Example 9, 4-(4-fluoro-phenyl)-piperazine-1-sulfonic acid amide]: 7.3 µM; for `CC(=O)c1ccc(N2CCN(S(N)(=O)=O)CC2)cc1` [Example 15]: 0.4 µM. Same read-out and setting: the same measure for `NS(=O)(=O)N1CCN(c2nccc(C(F)(F)F)n2)CC1` [Example 18]: 1.6 µM; for `CS(=O)(=O)c1ccc(N2CCN(S(N)(=O)=O)CC2)c(F)c1` [Example 21]: 0.2 µM. Still for that read-out and setting: the same measure for `COc1ccccc1N1CCN(S(N)(=O)=O)CC1` [Example 3, 4-(2-Methoxy-phenyl)-piperazine-1-sulfonic acid amide hydrochloride]: 7.8 µM; for `NS(=O)(=O)N1CCN(c2cccc(Cl)c2)CC1` [Example 10]: 4 µM. As to `Cc1cccc(N2CCN(S(N)(=O)=O)CC2)c1C` [Example 8], the IC50 came to 1.7 µM. Same read-out and setting: the same measure for `NS(=O)(=O)N1CCN(c2cc(C(F)(F)F)nc3ccccc23)CC1` [Example 17]: 1.9 µM; for `NS(=O)(=O)N1CCN(c2ncc(C(F)(F)F)cc2Cl)CC1` [Example 14, 4-(3-chloro-5-trifluoromethyl-pyridin-2-yl)-piperazine-1-sulfonic acid amide]: 0.2 µM.

Turning to `NS(=O)(=O)N1CCN(c2ncccn2)CC1` [Example 7, 4-pyrimidin-2-yl-piperazine-1-sulfonic acid amide], the IC50 came out at 1.8 µM.
